Series [1] is described as follows: Stability in canine liver microsomes. Conditions: canine liver microsomes 0.5 mg protein/mL, 1 μM test substance, β-NADPH 1 mM, 37° C.; for microsomal CLint at 1 μM / half-life at 1 μM: dog; for half-life at 1 μM: read-out: Canine t1/2. Format: in vitro ADME. The procedure: (§1) Experimental Example 2: Evaluation of Stability of Compounds Disclosed Herein in Liver Microsomes
(§2) Composition of experimental incubation system:
(§3) An appropriate amount of the compound was precisely weighed out and dissolved in DMSO to prepare a 10.0 mM stock solution. The 10.0 mM stock solution was diluted with DMSO to 1.0 mM, and then diluted with phosphate buffer (containing 3 mM MgCl2) to prepare a 10 μM test substance working solution for later use (DMSO content in the reaction system: 0.1%).
(§4) An appropriate amount of β-NADPH was precisely weighed out and then prepared into a 5 mM β-NADPH working solution using phosphate buffer (containing 3 mM MgCl2) for later use.
(§5) (1) The liver microsomes (20 mg protein/mL) were taken out from a −80° C. freezer and pre-incubated on a 37° C. water bath thermostatic oscillator for 3 min to thaw for later use.
(§6) (2) A mixed solution of the incubation system (without β-NADPH) was prepared according to “composition of experimental incubation system” described above, and pre-incubated on a 37° C. water bath thermostatic oscillator for 2 min.
(§7) (3) Control group (without β-NADPH): 10 μL of phosphate buffer (containing 3 mM MgCl2) and 40 μL of the mixed solution of the incubation system in step (2) were taken and mixed, and the mixture was vortexed for 30 s and mixed well, resulting in a total reaction volume of 50 μL; the sample was duplicated. The mixture was placed on a 37° C. water bath thermostatic oscillator for incubation, and timing was started, with termination time points set at 0 min and 60 min.
(§8) (4) Sample group: 10 μL of the β-NADPH solution (5 mM) and 40 μL of the mixed solution in step (2) were taken and mixed, resulting in a total reaction volume of 50 μL; the mixture was vortexed for 30 s and mixed well; the sample was duplicated. The mixture was placed on a 37° C. water bath thermostatic oscillator for incubation, and timing was started, with termination time points set at 0 min, 5 min, 10 min, 20 min, 30 min, and 60 min.
(§9) (5) The mixture was vortexed for 5 min and then centrifuged at 4000 rpm for 10 min.
(§10) (6) 50 μL of the supernatant was taken and added to 150 μL of water, and the resulting mixture was vortexed and mixed well before LC/MS/MS analysis.
(§11) The half-life (t1/2) and clearance rate (CL) were calculated using the following first-order kinetic formula
(§12) Notes: k denotes the slope of the logarithm of the remaining amount of a compound vs. time, and Vd denotes apparent volume of distribution.

A further series concerns the target T1, THP-1 cell NLRP3 (Homo sapiens, UniProt Q96P20).
T1 construct: endogenous in cells; host or cells: THP-1 cells, PMA-differentiated, stimulated with LPS and nigericin
In words: Inhibitory activity against cell NLRP3 inflammasomes in THP-1 cells (LPS + nigericin, ELISA of supernatant). Format: cell-based. The note with it: PMA-differentiated THP-1 cells, LPS 500 ng/mL 3 h, compound 1 h, nigericin 30 min; human IL-10 (so in the source) in supernatant by ELISA. The protocol: Experimental Example 1: Assay for Inhibitory Activity of Compounds Disclosed Herein Against Cell NLRP3 Inflammasomes
Test substances: The compounds of the present disclosure, prepared according to the methods described in the examples.
THP-1 is an immortalized human […] cell line.
Instrument: microplate reader (made by PE)
Assay Method: 1. THP-1 cells were cultured in 1640 complete medium (500 mL of 1640+56 mL of FBS+560 μL of 1000×P/S+2 μL of mercaptoethanol), and cells at passages 3-20 were used.
2. Culture plate coating: 100 μL of polylysine solution was added to a 96-well cell culture plate. After 30 min of incubation at 37° C., the solution was discarded, and the plate was washed with PBS twice for later use.
3. Induction of THP-1 differentiation: THP-1 cells were resuspended in an appropriate amount of complete medium containing 10 ng/mL PMA to form a cell suspension with a density of 5×10^5 cells/mL. The suspension was added to the 96-well plate at 100 μL/well, and the plate was incubated overnight in a 37° C. carbon dioxide cell incubator for 16 h.
4. Stimulation of THP-1: • a. Serum-free THP-1 culture medium containing LPS was added, with the final concentration being 500 ng/mL. The plate was incubated in a 37° C. carbon dioxide cell incubator for 3 h. • b. Mother liquors of the compounds to be tested with gradient concentrations were prepared with DMSO, added to the cells, and well mixed. Dilution was finally performed in a 1:1000 ratio. The plate was incubated in a 37° C. carbon dioxide cell incubator for 1 h. • c. Nigericin was added to each well, with the final concentration being […]. The plate was incubated in a carbon dioxide cell incubator at 37° C. for 30 min. • d. The medium in the wells was transferred to a new culture plate, and after 5 min of centrifugation at 3000 rpm, the supernatant was transferred to a new 96-well plate. • e. The content of human […] in the collected cell culture supernatant samples was determined with a commercial ELISA kit by following the instructions.
(An ELISA detects its analyte on a solid surface through an enzyme-linked reagent.)

Series [2] in a line: Stability in rat liver microsomes. Format: in vitro ADME. The note with it: rat liver microsomes 0.5 mg protein/mL, 1 μM test substance, β-NADPH 1 mM, 37° C.; for half-life at 1 μM: read-out: Rat t1/2. The procedure: as §1, §2, §3, §4, §5, §6, §7, §8, §9, §10, §11, §12
(In general: Liver microsomes are a subcellular fraction often used to study metabolism.)

The nature of series [3]: Pharmacokinetic study in mice. Format: in vivo, female C57BL/6J mice. The note with it: female, C57BL/6J, mouse, plasma; for clearance: read-out: Cl—obs iv (clearance rate) (converted); for Vd: read-out: Vss iv (distribution volume); for bioavailability: po 10 mg/kg vs iv 5 mg/kg, read-out: F% (absolute bioavailability); for Tmax: median, read-out: Tmax po (time to peak plasma concentration); for Cmax: read-out: Cmax po (peak concentration). The protocol:
The compounds were prepared into solutions using a mixed vehicle composed of 5% dimethyl sulfoxide, 20% (30% solutol), and 75% normal saline. The compound solutions were intragastrically administered to female C57BL/6J mice at a dose of 10 mg/kg, and the blood collection time points were: 15 min, 30 min, 1 h, 2 h, 4 h, 6 h, 8 h, and 24 h.
The compounds were prepared into solutions using a mixed vehicle composed of 5% dimethyl sulfoxide, 20% (30% solutol), and 75% normal saline. The compound solutions were intravenously injected into female C57BL/6J mice at a dose of 5 mg/kg, and the blood collection time points were: 5 min, 15 min, 30 min, 1 h, 2 h, 4 h, 6 h, 8 h, and 24 h.
The samples to be tested were taken out from a −80° C. freezer, naturally thawed at room temperature, and then vortexed for 5 min.
Plasma samples of 10 μL from different individuals were accurately pipetted into 1.5 mL centrifuge tubes.
900 μL of a 100 ng/mL internal standard working solution (a solution of tolbutamide in acetonitrile) was added, and the mixture was well mixed.
After 5 min of vortexing, centrifugation was performed at 12,000 rpm for 5 min.
50 μL of the supernatant was accurately pipetted into a 96-well plate to which water was added in advance at 150 μL/well.
After 5 min of vortexing, LC-MS/MS analysis was performed.
The results of the test substance concentrations were output by Analyst 1.6.3 of AB Sciex.
Parameters such as mean, standard deviation, and coefficient of variation (excluding those output directly by Analyst 1.6.3) were calculated using Microsoft Excel. PK parameters were calculated using WinNonlin Phenoix 8.2 software NCA (Tmax was a median).

The mark [4] stands for this setting: iv 5 mg/kg, read-out: AUClast iv (0-24 h).
The mark [5] stands for this setting: iv 5 mg/kg, read-out: tz1/2 iv (terminal half-life) (converted).
Setting [6] is: po 10 mg/kg, read-out: AUClast po (0-24 h).
The mark [7] stands for this setting: po 10 mg/kg, read-out: tz1/2 po (terminal half-life) (converted).

Molecules are shown by their SMILES. Read-outs that look alike come from different tables or passages of the source.

T1 sequence (Q96P20 whole entry): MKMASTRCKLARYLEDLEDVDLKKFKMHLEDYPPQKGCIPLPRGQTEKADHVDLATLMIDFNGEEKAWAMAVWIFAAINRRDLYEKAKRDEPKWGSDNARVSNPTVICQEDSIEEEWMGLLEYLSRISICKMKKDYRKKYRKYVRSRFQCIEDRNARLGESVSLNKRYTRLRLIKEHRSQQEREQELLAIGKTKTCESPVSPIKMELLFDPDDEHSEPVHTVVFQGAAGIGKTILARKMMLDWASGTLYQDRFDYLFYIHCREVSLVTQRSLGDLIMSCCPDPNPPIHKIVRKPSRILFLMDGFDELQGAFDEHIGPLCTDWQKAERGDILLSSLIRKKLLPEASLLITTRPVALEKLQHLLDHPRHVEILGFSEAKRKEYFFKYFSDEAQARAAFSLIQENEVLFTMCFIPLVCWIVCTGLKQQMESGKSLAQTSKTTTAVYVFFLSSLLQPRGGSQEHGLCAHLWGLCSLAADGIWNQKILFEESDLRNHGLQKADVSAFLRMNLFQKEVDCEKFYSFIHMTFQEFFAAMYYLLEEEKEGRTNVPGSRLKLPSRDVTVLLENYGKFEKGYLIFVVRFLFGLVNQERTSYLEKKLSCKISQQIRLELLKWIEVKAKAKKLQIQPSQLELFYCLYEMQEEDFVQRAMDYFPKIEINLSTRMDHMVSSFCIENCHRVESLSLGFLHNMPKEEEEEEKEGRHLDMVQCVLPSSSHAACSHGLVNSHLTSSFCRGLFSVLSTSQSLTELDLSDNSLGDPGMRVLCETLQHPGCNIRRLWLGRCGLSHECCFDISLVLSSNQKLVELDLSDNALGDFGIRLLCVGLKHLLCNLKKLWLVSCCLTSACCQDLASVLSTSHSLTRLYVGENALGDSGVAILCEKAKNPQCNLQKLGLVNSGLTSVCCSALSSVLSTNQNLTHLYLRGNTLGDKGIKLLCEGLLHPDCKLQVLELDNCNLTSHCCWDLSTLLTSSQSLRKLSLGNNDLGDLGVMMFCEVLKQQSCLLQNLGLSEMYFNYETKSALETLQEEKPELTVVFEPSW

As a reminder, the microsomal CLint is the capacity of the preparation to metabolise the compound, expressed as a volume cleared per time. A lower microsomal CLint goes with slow turnover. Usually IC50 stands for the concentration at which inhibition is half-maximal. As to `[2H]C([2H])([2H])N1CCC[C@@H](Nc2nnc(-c3ccc(C#C)cc3O)c(C)n2)C1` [Compound 86, (R)-5-ethynyl-2-(5-methyl-3-((1-(methyl-d3)piperidin-3-yl)amino)-1,2,4-triazin-6-yl)phenol], in series [1], the microsomal CLint at 1 μM amounted to 6.6 µL/min/mg and the half-life at 1 μM amounted to 3.5 h. The IC50 on THP-1 cell NLRP3 turned out to be 0.3 nM. Moreover, in series [2], the microsomal CLint at 1 μM worked out at 7.8 µL/min/mg and the half-life at 1 μM is 2.97 h.
For `[2H]C([2H])([2H])N1CCC[C@@H](Nc2nnc(-c3ccc(C#C)cc3O)n(C)c2=O)C1` [Compound 88, (R)-3-(4-ethynyl-2-hydroxyphenyl)-4-methyl-6-((1-(methyl-d3)piperidin-3-yl)amino)-1,2,4-triazin-5(4H)-one] the same measures were 1.6 µL/min/mg, 14.4 h, 1.2 nM, 2 µL/min/mg and 11.6 h.
By clearance is commonly meant the rate of elimination divided by the concentration. One may read the bioavailability as the share of a dose that reaches the circulation, judged against a reference dose that is usually intravenous. As to `CC#Cc1ccc(-c2nnc(N[C@@H]3CCCN(CCO)C3)cc2C2CC2)c(O)c1` [Compound 44, (R)-2-(4-cyclopropyl-6-((1-(2-hydroxyethyl)piperidin-3-yl)amino)pyridazin-3-yl)-5-(prop-1-yn-1-yl)phenol], the IC50 on THP-1 cell NLRP3 came out at 3.6 nM. In addition, in series [3] (setting [4]), the AUC(0-t) worked out at 8960 ng·h/mL. In series [3] (iv 5 mg/kg), the clearance is 9.18 mL/min/kg and the Vd turned out to be 2.76 L/kg. Also, the half-life in series [3] (setting [5]) is 3.95 h. The bioavailability in series [3] worked out at 69.1%. Besides, in series [3] (po 10 mg/kg), the Tmax was 0.5 h and the Cmax amounted to 1710 ng/mL. The AUC(0-t) in series [3] (setting [6]) came out at 12400 ng·h/mL. For the same compound, in series [3] (setting [7]), the half-life was 4.05 h.
With `C#Cc1ccc(-c2nnc(N[C@@H]3CCCN(C)C3)cc2C(F)F)c(O)c1` [Compound 115, (R)-2-(4-Difluoromethyl-6-((1-methylpiperidin-3-yl)amino)pyridazin-3-yl)-5-ethynylphenol], in series [1], the microsomal CLint at 1 μM worked out at 3.6 µL/min/mg and the half-life at 1 μM was determined as 6.42 h. Also, the IC50 at THP-1 cell NLRP3 stood at 0.3 nM. In addition, in series [2], the microsomal CLint at 1 μM is 20.2 µL/min/mg and the half-life at 1 μM is 1.14 h.
Take `C#Cc1ccc(-c2nnc(N[C@@H]3CCCNC3)cc2C2CC2)c(O)c1` [Compound 149, (R)-2-(4-cyclopropyl-6-(piperidin-3-ylamino)pyridazin-3-yl)-5-ethynylphenol]: the “Canine t1/2” value in series [1] is recorded as “→∞”. Also, the IC50 on THP-1 cell NLRP3 came to 0.5 nM. In addition, in series [2], the “Rat t1/2” value was “→∞”.
In the case of `C#Cc1ccc(-c2nnc(N[C@@H]3CCCN(CC)C3)cc2C2CC2)c(O)c1` [Compound 90, (R)-2-(4-cyclopropyl-6-((1-ethylpiperidin-3-yl)amino)pyridazin-3-yl)-5-ethynylphenol], the 50% inhibitory concentration (IC50) at THP-1 cell NLRP3 worked out at 0.4 nM. In addition, the AUC(0-t) in series [3] (setting [4]) was determined as 4020 ng·h/mL. In series [3] (iv 5 mg/kg), the clearance was 20.7 mL/min/kg and the Vd came out at 6.23 L/kg. For the same compound, the half-life in series [3] (setting [5]) is 3.23 h. Moreover, in series [3], the bioavailability was 94.5%. For the same compound, in series [3] (po 10 mg/kg), the Tmax worked out at 2 h and the Cmax was found to be 900 ng/mL. The AUC(0-t) in series [3] (setting [6]) was 7580 ng·h/mL. For the same compound, the half-life in series [3] (setting [7]) was 3.33 h.
Consider `C#Cc1ccc(-c2nnc(N[C@@H]3CCCN(C)C3)cc2C2CCC2)c(O)c1` [Compound 82, (R)-5-ethynyl-2-(4-cyclobutyl-6-((1-methylpiperidin-3-yl)amino)pyridazin-3-yl)phenol], for which, in series [1], the intrinsic clearance (microsomal CLint) at 1 μM is 8 µL/min/mg and the half-life at 1 μM stood at 2.88 h. The IC50 at THP-1 cell NLRP3 was 1.1 nM. In series [2], the intrinsic metabolic clearance (microsomal CLint) at 1 μM came out at 10.4 µL/min/mg and the half-life at 1 μM was 2.22 h.
The like results for `C#Cc1ccc(-c2nnc(N[C@@H]3CCCC[C@H]3O)cc2C)c(O)c1` [Compound 83, 5-ethynyl-2-(6-(((1R,2R)-2-hydroxycyclohexyl)amino)-4-methylpyridazin-3-yl)phenol] were, in that order, 3.8 µL/min/mg, 6.08 h, 6.1 nM, 10 µL/min/mg and 2.32 h.
For `C#Cc1ccc(-c2nnc(N[C@@H]3CCCN(C)C3)cc2C(F)(F)F)c(O)c1` [Compound 114, (R)-5-Ethynyl-2-(4-trifluoromethyl-6-((1-methylpiperidin-3-yl)amino)pyridazin-3-yl)phenol] the same measures were 1 µL/min/mg, 23.1 h, 1.3 nM, 0.4 µL/min/mg and 57.8 h.

Source of the values: patent publication US20260167637A1, “NLRP3 INFLAMMASOME INHIBITOR AND USE THEREOF” (TransThera Sciences (Nanjing), Inc., priority 2022, published 2026).
